Test results as given in patent US20240317706A1, “COMPOUNDS THAT MEDIATE PROTEIN DEGRADATION AND METHODS OF USE THEREOF” (Monte Rosa Therapeutics, Inc., priority 2021, published 2024).

Columns and labels:
CDK2 = target: T1, CDK2 (Homo sapiens, UniProt P24941); experiment: HiBiT assay (CDK2 degradation); format: cell-based; settings: HEK293 clonal line with CRISPR KI HiBiT tag on CDK2, 24 hours, HiBiT Lysis Reagent
T1 construct: HEK293 clonal lines with CRISPR KI HiBiT tag on CDK2 proteins; host or cells: HEK293 clonal line, CRISPR knock-in HiBiT-CDK2, stably expressing LgBiT
Method: HEK293 clonal lines with CRISPR KI HiBiT tag on CDK2 proteins and stably expressing LgBiT protein were obtained from Promega (Madison, WI). Cells were plated at 5000 cells per well using Multiflo (BioTek) in 384-well white solid bottom plates (Corning, 3570BC) in 25 ul volume in DMEM media (DMEM, high glucose, HEPES, no phenol red (ThermoFisher Scientific, 21063029)) containing 10% FBS (Corning, 35-075-CV), 1% Penicillin/Streptomycin (ThermoFisher Scientific, 15140-122). Cells were incubated for 16 hours at 37° C., 5% CO2. 75 nL of a compound at 30 μM were dosed into the plate using an Echo® 650 liquid handler (Labcyte). Cells were incubated at 37° C., 5% CO2 for 24 hours. 5 ul of HiBiT Lysis Reagent (Promega, N3030) is added using Combi Multidrop (ThermoFisher Scientific), plates are incubated for 15′ at 37° C., 5% CO2 and then signal was read on a Pherastar FSX using “LUM plus” optic module.
Analysis was performed in Scinamic (Scinamic, Cambridge, MA). Luminescence response (R) was calculated by the formula: response=100*(S−N)/(P−N) where S is the signal of the well, N and P the mean negative and positive control values respectively of the same plate. The luminescence response was then fitted in Scinamic using a 3-parameter agonist logistic fit (hillslope=1, EC50>0, top/bottom unconstrained).

CRBN-DDB1 = CRBN-DDB1 (Homo sapiens, UniProt Q96SW2); experiment: Compound binding to CRBN by HTRF assay; settings: CRBN-DDB1 2.5 nM, Cy5-Thalidomide 100 nM, 30 min; Ki from geometric mean IC50 by Cheng-Prustoff transformation
CRBN-DDB1, sequence (Q96SW2 whole entry): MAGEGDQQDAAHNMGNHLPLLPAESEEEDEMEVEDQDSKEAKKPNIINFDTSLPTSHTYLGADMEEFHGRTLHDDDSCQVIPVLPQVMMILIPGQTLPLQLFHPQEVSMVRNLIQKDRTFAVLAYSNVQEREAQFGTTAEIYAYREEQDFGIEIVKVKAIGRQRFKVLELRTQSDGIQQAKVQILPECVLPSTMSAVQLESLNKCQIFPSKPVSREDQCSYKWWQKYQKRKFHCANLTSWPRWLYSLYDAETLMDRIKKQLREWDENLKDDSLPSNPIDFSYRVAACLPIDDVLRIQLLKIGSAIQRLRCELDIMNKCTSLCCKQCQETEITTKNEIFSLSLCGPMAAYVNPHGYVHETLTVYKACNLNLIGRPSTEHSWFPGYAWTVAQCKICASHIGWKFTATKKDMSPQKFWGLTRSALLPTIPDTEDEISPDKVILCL
CRBN-DDB1, sequence (Q16531 whole entry partner): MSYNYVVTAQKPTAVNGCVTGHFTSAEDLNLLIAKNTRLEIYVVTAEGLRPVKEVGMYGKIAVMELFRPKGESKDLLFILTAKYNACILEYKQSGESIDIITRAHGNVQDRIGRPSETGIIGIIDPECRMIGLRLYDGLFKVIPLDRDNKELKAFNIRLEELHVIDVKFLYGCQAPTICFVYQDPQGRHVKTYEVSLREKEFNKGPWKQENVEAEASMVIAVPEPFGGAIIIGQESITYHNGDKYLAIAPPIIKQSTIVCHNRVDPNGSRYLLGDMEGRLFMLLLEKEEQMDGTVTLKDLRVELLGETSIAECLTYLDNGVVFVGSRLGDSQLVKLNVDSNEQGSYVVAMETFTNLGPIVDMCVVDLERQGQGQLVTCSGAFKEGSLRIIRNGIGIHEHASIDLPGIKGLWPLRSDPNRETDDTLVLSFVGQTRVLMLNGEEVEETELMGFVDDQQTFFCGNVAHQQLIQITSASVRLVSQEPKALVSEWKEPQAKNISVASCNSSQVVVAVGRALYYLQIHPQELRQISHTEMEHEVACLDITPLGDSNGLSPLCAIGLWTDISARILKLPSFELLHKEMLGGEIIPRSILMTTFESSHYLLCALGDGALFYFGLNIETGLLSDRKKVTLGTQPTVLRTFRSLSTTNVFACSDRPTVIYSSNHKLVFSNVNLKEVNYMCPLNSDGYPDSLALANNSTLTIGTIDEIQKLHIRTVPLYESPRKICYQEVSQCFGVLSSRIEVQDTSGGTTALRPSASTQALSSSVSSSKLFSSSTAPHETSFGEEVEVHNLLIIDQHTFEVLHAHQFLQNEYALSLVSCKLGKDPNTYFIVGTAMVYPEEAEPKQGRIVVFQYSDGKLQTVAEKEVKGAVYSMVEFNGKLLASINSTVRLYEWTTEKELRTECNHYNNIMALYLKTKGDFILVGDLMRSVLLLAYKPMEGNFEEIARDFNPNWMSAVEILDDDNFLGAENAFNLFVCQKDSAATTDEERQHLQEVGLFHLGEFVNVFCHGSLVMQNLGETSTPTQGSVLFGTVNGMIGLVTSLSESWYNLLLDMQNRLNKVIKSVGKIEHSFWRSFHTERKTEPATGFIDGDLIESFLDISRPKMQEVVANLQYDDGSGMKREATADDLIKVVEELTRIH
Summary of the method: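 HTRF displacement of Cy5-thalidomide probe (100 nM) from His-CRBN-DDB1 (2.5 nM) with anti-His terbium cryptate, in HEPES/NaCl/TCEP/EDTA/Tween20 buffer. 10-point 1:3 compound series, 30 min at ambient temperature; signal normalised to DMSO and lenalidomide controls, IC50 fitted and Ki derived by Cheng-Prusoff.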

SMILES: O=C1CCC(N2Cc3ccc(CNC(=O)OCCC4CC(F)(F)C4)cc3C2=O)C(=O)N1 (stereo not shown) [Compound 47, 2-(3,3-difluorocyclobutyl)ethyl N-{[2-(2,6-dioxopiperidin-3-yl)-3-oxo-2,3-dihydro-1H-isoindol-5-yl]methyl}carbamate]
- Dmax (CDK2): 10 to 50%
- Ki (CRBN-DDB1): 100 to 1000 nM

SMILES: O=C1CCC(N2Cc3ccc(CNC(=O)OCC4CC45CCOCC5)cc3C2=O)C(=O)N1 (stereo not shown) [Compound 52, {6-oxaspiro[2.5]octan-1-yl}methyl N-{[2-(2,6-dioxopiperidin-3-yl)-3-oxo-2,3-dihydro-1H-isoindol-5-yl]methyl}carbamate]
- Dmax (CDK2): 10 to 50%
- Ki (CRBN-DDB1): 100 to 1000 nM

SMILES: O=C1CCC(N2Cc3ccc(CNC(=O)OCC4CCC(F)(F)C4)cc3C2=O)C(=O)N1 (stereo not shown) [Compound 54, (3,3-difluorocyclopentyl)methyl N-{[2-(2,6-dioxopiperidin-3-yl)-3-oxo-2,3-dihydro-1H-isoindol-5-yl]methyl}carbamate]
- Dmax (CDK2): 10 to 50%
- Ki (CRBN-DDB1): 100 to 1000 nM

SMILES: CC1(COC(=O)NCc2ccc3c(c2)C(=O)N(C2CCC(=O)NC2=O)C3)CCCCO1 (stereo not shown) [Compound 64, (2-methyloxan-2-yl)methyl N-{[2-(2,6-dioxopiperidin-3-yl)-3-oxo-2,3-dihydro-1H-isoindol-5-yl]methyl}carbamate]
- Dmax (CDK2): 10 to 50%
- Ki (CRBN-DDB1): ≤ 100 nM

SMILES: CC1(CCCOC(=O)NCc2ccc3c(c2)C(=O)N(C2CCC(=O)NC2=O)C3)CC1 (stereo not shown) [Compound 65, 3-(1-methylcyclopropyl)propyl N-{[2-(2,6-dioxopiperidin-3-yl)-3-oxo-2,3-dihydro-1H-isoindol-5-yl]methyl}carbamate]
- Dmax (CDK2): 50 to 80%
- Ki (CRBN-DDB1): ≤ 100 nM

SMILES: COC1CC(COC(=O)NCc2ccc3c(c2)C(=O)N(C2CCC(=O)NC2=O)C3)C1 (stereo not shown) [Compound 66, (3-methoxycyclobutyl)methyl N-{[2-(2,6-dioxopiperidin-3-yl)-3-oxo-2,3-dihydro-1H-isoindol-5-yl]methyl}carbamate]
- Dmax (CDK2): 10 to 50%
- Ki (CRBN-DDB1): 100 to 1000 nM

SMILES: CCOC1CC(COC(=O)NCc2ccc3c(c2)C(=O)N(C2CCC(=O)NC2=O)C3)C1 (stereo not shown) [Compound 67, (3-ethoxycyclobutyl)methyl N-{[2-(2,6-dioxopiperidin-3-yl)-3-oxo-2,3-dihydro-1H-isoindol-5-yl]methyl}carbamate]
- Dmax (CDK2): 10 to 50%
- Ki (CRBN-DDB1): 100 to 1000 nM

SMILES: CC(C)(CCOC(=O)NCc1ccc2c(c1)C(=O)N(C1CCC(=O)NC1=O)C2)C1CC1 (stereo not shown) [Compound 69, 3-cyclopropyl-3-methylbutyl N-{[2-(2,6-dioxopiperidin-3-yl)-3-oxo-2,3-dihydro-1H-isoindol-5-yl]methyl}carbamate]
- Dmax (CDK2): 50 to 80%
- Ki (CRBN-DDB1): ≤ 100 nM

SMILES: O=C1CCC(N2Cc3ccc(CNC(=O)OCC4(F)CCC4)cc3C2=O)C(=O)N1 (stereo not shown) [Compound 74, (1-fluorocyclobutyl)methyl N-{[2-(2,6-dioxopiperidin-3-yl)-3-oxo-2,3-dihydro-1H-isoindol-5-yl]methyl}carbamate]
- Dmax (CDK2): ≤ 10%
- Ki (CRBN-DDB1): 100 to 1000 nM

SMILES: CC(C)(C)C1CC(OC(=O)NCc2ccc3c(c2)C(=O)N(C2CCC(=O)NC2=O)C3)C1 (stereo not shown) [Compound 84, 3-tert-butylcyclobutyl N-{[2-(2,6-dioxopiperidin-3-yl)-3-oxo-2,3-dihydro-1H-isoindol-5-yl]methyl}carbamate]
- Dmax (CDK2): 50 to 80%
- Ki (CRBN-DDB1): 100 to 1000 nM

SMILES: O=C1CCC(N2Cc3ccc(CNC(=O)OCC4C(F)(F)C45CC5)cc3C2=O)C(=O)N1 (stereo not shown) [Compound 86, {2,2-difluorospiro[2.2]pentan-1-yl}methyl N-{[2-(2,6-dioxopiperidin-3-yl)-3-oxo-2,3-dihydro-1H-isoindol-5-yl]methyl}carbamate]
- Dmax (CDK2): 50 to 80%
- Ki (CRBN-DDB1): ≤ 100 nM

SMILES: O=C1CCC(N2Cc3ccc(CNC(=O)OCC4CCC(F)(F)CC4)cc3C2=O)C(=O)N1 (stereo not shown) [Compound 88, (4,4-difluorocyclohexyl)methyl N-{[2-(2,6-dioxopiperidin-3-yl)-3-oxo-2,3-dihydro-1H-isoindol-5-yl]methyl}carbamate]
- Dmax (CDK2): 10 to 50%
- Ki (CRBN-DDB1): 100 to 1000 nM

SMILES: CC(C)C1CCC(OC(=O)NCc2ccc3c(c2)C(=O)N(C2CCC(=O)NC2=O)C3)CC1 (stereo not shown) [Compound 89, 4-(propan-2-yl)cyclohexyl N-{[2-(2,6-dioxopiperidin-3-yl)-3-oxo-2,3-dihydro-1H-isoindol-5-yl]methyl}carbamate]
- Dmax (CDK2): 50 to 80%
- Ki (CRBN-DDB1): 100 to 1000 nM

SMILES: O=C1CCC(N2Cc3ccc(CNC(=O)OC4CC5(CCOCC5)C4)cc3C2=O)C(=O)N1 (stereo not shown) [Compound 90, 7-oxaspiro[3.5]nonan-2-yl N-{[2-(2,6-dioxopiperidin-3-yl)-3-oxo-2,3-dihydro-1H-isoindol-5-yl]methyl}carbamate]
- Dmax (CDK2): 10 to 50%
- Ki (CRBN-DDB1): 100 to 1000 nM

SMILES: O=C1CCC(N2Cc3ccc(CNC(=O)OCC4CC5(C4)CC54CCC4)cc3C2=O)C(=O)N1 (stereo not shown) [Compound 93, {dispiro[3.0.3^5.1^4]nonan-2-yl}methyl N-{[2-(2,6-dioxopiperidin-3-yl)-3-oxo-2,3-dihydro-1H-isoindol-5-yl]methyl}carbamate]
- Dmax (CDK2): 50 to 80%
- Ki (CRBN-DDB1): ≤ 100 nM

SMILES: O=C1CCC(N2Cc3ccc(CNC(=O)OCC4CC5(CCCC5)CO4)cc3C2=O)C(=O)N1 (stereo not shown) [Compound 94, {2-oxaspiro[4.4]nonan-3-yl}methyl N-{[2-(2,6-dioxopiperidin-3-yl)-3-oxo-2,3-dihydro-1H-isoindol-5-yl]methyl}carbamate]
- Dmax (CDK2): 10 to 50%
- Ki (CRBN-DDB1): 100 to 1000 nM

SMILES: O=C1CCC(N2Cc3ccc(CNC(=O)OCC4CC45CCC(F)(F)CC5)cc3C2=O)C(=O)N1 (stereo not shown) [Compound 95, {6,6-difluorospiro[2.5]octan-1-yl}methyl N-{[2-(2,6-dioxopiperidin-3-yl)-3-oxo-2,3-dihydro-1H-isoindol-5-yl]methyl}carbamate]
- Dmax (CDK2): 10 to 50%
- Ki (CRBN-DDB1): 100 to 1000 nM
